Reference: patent US5760048A, “Alpha-mercaptoacrylic acid derivatives having calpain inhibitory activity” (Warner-Lambert Company, priority 1996, dated 1998)
Read-outs that look alike come from different tables or passages of the source.

Legend:
calpain I = target: T1, calpain I (Homo sapiens, UniProt P07384); experiment: Assay of Calpain Activity (casein substrate, microplate, Coomassie blue); assay type: biochemical; set-up: Calpain I was purified from human erythrocytes; from tissue; host or cells: human erythrocytes
T1 sequence (P07384 1-714): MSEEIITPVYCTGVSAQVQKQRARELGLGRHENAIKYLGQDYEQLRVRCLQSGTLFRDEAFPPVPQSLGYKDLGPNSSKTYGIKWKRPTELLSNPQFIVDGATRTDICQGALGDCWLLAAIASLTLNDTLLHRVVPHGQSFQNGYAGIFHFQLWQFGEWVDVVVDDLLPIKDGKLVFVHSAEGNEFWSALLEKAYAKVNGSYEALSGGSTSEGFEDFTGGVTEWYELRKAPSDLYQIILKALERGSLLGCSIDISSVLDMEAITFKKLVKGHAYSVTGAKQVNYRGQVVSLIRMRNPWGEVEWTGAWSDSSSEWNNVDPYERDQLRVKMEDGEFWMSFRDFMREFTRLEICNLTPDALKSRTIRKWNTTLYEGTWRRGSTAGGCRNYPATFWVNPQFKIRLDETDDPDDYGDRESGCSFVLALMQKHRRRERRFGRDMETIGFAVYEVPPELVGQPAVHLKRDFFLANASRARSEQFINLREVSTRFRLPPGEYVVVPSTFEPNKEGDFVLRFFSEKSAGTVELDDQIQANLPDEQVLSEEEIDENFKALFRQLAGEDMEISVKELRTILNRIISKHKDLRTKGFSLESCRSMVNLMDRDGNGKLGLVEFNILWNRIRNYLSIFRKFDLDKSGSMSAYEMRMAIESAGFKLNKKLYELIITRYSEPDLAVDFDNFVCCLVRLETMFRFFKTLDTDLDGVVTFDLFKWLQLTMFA
T1 sequence (P04632 1-268 partner): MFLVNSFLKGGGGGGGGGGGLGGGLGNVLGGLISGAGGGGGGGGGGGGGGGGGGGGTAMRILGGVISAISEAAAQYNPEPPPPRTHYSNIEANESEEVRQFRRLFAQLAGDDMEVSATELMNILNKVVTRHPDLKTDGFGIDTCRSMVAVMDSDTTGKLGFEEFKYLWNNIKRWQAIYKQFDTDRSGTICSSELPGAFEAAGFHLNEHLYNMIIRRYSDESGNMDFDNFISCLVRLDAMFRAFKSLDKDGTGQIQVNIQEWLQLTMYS
Description: In 250 μL of reaction mixture, substrate casein (0.5 mg/mL) was incubated with 0.01 unit (80-120 ng) calpain I, 20 mM dithiothreitol (DTT), 50 mM Tris-HCl (pH 7.4 at 25° C.), and 4 mM CaCl2 at 25° C. for 60 minutes. Two 100-μL aliquots were taken for Coomassie blue binding analysis to quantify the remaining casein.
Calpain I was assayed as described (α-mercaptoacrylic acid). […] Inhibition of these proteases are presented as IC50.

papain = target: T2, papain (Carica papaya, UniProt P00784); experiment: Selectivity: papain protease assay (casein substrate); assay type: biochemical; details: Table II; read-out: Inhibitory Activity of Thiol-Acrylates, Papain (IC50)
T2 construct: purchased Sigma P3125; host or cells: papaya latex
T2 sequence (P00784 134-345): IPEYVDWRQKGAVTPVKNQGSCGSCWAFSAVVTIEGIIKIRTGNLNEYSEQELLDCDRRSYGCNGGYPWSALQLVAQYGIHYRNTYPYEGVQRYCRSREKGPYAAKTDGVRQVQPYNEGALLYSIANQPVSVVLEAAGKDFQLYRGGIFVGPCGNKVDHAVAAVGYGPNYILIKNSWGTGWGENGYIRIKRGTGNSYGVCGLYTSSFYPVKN
Description: (§1) Calpain I was assayed as described (α-mercaptoacrylic acid). Ten to 20 ng papain (papaya latex, Sigma, P3125), 1.25 μg trypsin (bovine pancreas, Sigma, T8003), and 5 μg thermolysin (Bacillus thermoproteolyticus, Sigma, P1512) were assayed using 0.5 mg/mL casein as substrate in the microplate format (250 μL reaction volume), essentially as described by Buroker-Kilgore M., Wang K. K. W., Anal Biochem 1993;208:387-392. Inhibition of these proteases are presented as IC50.

trypsin = target: T3, trypsin (Bos taurus, UniProt P00760); experiment: Selectivity: trypsin protease assay (casein substrate); assay type: biochemical, bovine; details: Table II; read-out: Inhibitory Activity of Thiol-Acrylates, Trypsin (IC50)
T3 construct: purchased Sigma T8003; host or cells: bovine pancreas
T3 sequence (P00760 24-246): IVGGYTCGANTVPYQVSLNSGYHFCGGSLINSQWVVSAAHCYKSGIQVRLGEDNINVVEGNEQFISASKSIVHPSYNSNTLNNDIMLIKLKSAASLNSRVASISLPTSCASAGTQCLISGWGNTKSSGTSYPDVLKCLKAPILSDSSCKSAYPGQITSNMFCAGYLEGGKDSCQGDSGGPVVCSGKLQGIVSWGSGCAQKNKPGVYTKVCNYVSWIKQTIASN
Description: as §1

thermolysin = target: T4, thermolysin (Bacillus thermoproteolyticus, UniProt P00800); experiment: Selectivity: thermolysin protease assay (casein substrate); assay type: biochemical
T4 construct: purchased Sigma P1512; host or cells: Bacillus thermoproteolyticus
T4 sequence (P00800 233-548): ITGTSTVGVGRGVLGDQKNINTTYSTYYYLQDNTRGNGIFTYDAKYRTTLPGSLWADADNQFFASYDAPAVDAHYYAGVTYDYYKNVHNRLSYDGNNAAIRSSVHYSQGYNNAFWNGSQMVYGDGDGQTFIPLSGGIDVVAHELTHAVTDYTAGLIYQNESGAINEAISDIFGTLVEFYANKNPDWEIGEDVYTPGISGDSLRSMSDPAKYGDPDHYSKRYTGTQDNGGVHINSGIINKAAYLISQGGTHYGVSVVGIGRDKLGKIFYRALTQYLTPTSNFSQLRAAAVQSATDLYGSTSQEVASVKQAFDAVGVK
Description: as §1

[1] = tested on: Fetal rat cortical cell cultures; experiment: Assay of Lactate Dehydrogenase (LDH): NMDA-induced LDH release; assay type: cell-based; details: FIG. II; for block of NMDA-induced LDH release (in words): 500 μM NMDA, 200 μM calpain inhibiting compound
Description: Seventeen-day-old cultures were pretreated with 200 μM calpain inhibiting compound (when added) for 1 hour before treatment of 500 μM N-methyl-D-aspartate (NMDA) for 30 minutes (in the absence or the presence of the compound).

[2] = tested on: spectrin breakdown in rat cortical cell cultures; experiment: Spectrin Breakdown Measurement (immunoblot); assay type: cell-based; details: NMDA-treated cortical cells, 4-hour post-NMDA
Description: Rat cortical cell cultures were treated with NMDA in the absence or presence of calpain inhibiting compounds as described in "Assay of LDH" above. At the end of the 4-hour post-NMDA incubation, cells were lysed with 300 μL buffer containing 20 mM Tris-HCL (pH 7.4 at 4° C.), 1% SDS, 5 mM EGTA, 5 mM EDTA, 1 mM DTT, and various protease inhibitors. Total cellular protein was precipitated by 100 μL of 100% trichloroacetic acid. The samples were centrifuged and the pelleted protein solubilized with 50 μl of 3M Tris base. […] The blots were then probed with rabbit antibrain spectrin antibody (primary antibody) followed by alkaline phosphatase-conjugated goat antirabbit immunoglobulin G antibody (secondary antibody). […] The SBP were quantified by densitometry (BioRad Model 620).

[3] = Table I, 4 mM CaCl2, pH 7.4, 25° C., 60 minutes, read-out: Inhibitory Activity Against Human Calpain I IC50
[4] = Table II (selectivity), read-out: Inhibitory Activity of Thiol-Acrylates, Calpain (IC50)

Structure (SMILES) | IC50 (calpain I; [3]) | further results
O=C(O)/C(S)=C/c1c[nH]c2ccc(F)cc12 [Example 4, 3-(5-fluoro-3-indolyl)-2-mercapto-2-propenoic Acid] | 0.45 µM | –
O=C(O)/C(S)=C/c1ccc(I)cc1 [Example 8, (Z)-2-propenoic Acid, 3-(4-iodophenyl)-2-mercapto] | – | IC50 (calpain I): 0.36 µM; IC50 (papain): > 500 µM; IC50 (trypsin): > 500 µM; IC50 (thermolysin): 204 µM
O=C(O)/C(S)=C/c1ccc(F)cc1 [Example 10, 2-Propenoic Acid, 3-(4-fluorophenyl)-2-mercapto] | 1.2 µM | –
CCn1c2ccccc2c2cc(/C=C(\S)C(=O)O)ccc21 [Example 12] | 1.1 µM | –
COc1ccc(/C(C)=C(\S)C(=O)O)cc1 [Example 14, (Z)-2-Butanoic Acid, 2-mercapto-3-(4-methoxyphenyl)] | – | inhibition at 200 µM (calpain I; at 200 μM, Table I, read-out: Inhibitory Activity Against Human Calpain I, % inhibition): 66%
O=C(O)/C(S)=C/c1ccc(-c2ccccc2)cc1 [Example 16, (Z)-2-Propenoic Acid, 3-[1,1'-biphenyl)-4-yl-2-mercapto] | 3 µM | –
O=C(O)/C(S)=C/c1ccc(OCc2ccccc2)cc1 [Example 18, (Z)-2-Propenoic Acid, 2-mercapto-3-[4-(phenylmethoxy)phenyl]] | 1.8 µM | block of NMDA-induced LDH release (in words) [1]: partially blocked
O=C(O)/C(S)=C/c1cccc2ccccc12 [Example 20, (Z)-2-Propenoic Acid, 2-mercapto-3-(1-naphthalenyl)] | 3.6 µM | –
O=C(O)/C(S)=C/c1c[nH]c2ccccc12 [Example 22, (Z)-2-Propenoic Acid, 3-(1H-indol-3-yl)-2-mercapto] | 1.3 µM | IC50 (calpain I; [4]): 1.3 µM; IC50 (papain): > 200 µM; spectrin breakdown product (SBP) formation, 150 kDa and 145 kDa (in words) [2]: partially blocked SBP formation; IC50 (trypsin): > 200 µM; IC50 (thermolysin): 248 µM
O=C(O)/C(S)=C/c1cc2ccccc2[nH]1 [Example 25, 3-(2-indolyl)-2-mercapto-2-propenoic Acid] | 1.7 µM | –
O=C(O)/C(S)=C/c1cc2ccccc2c2ccccc12 [Example 27, 3-(9--phenanthyl)-2-mercapto-2-propenoic Acid] | 3.1 µM | –
O=C(O)/C(S)=C/c1cccs1 [Example 29] | 4 µM | –
O=C(O)/C(S)=C/c1cc2ccccc2o1 [Example 31, (Z)-2-Propenoic Acid, 3-(2-benzofuranyl)-2-mercapto] | 3.2 µM | –
COc1ccc2cc(/C=C(\S)C(=O)O)ccc2c1 [Example 34, (Z)-2-Propenoic Acid, 2-mercapto-3-(6-methoxy-2-naphthalenyl)] | 2.1 µM | –
O=C(O)/C(S)=C/c1ccc2c(c1)OCO2 [Example 36, (Z)-2-propenoic acid, 3-(5-benzodioxoyl)-2-mercapto] | 1.2 µM | –
Cc1cc(/C=C(\S)C(=O)O)c(C)n1-c1ccccc1 [Example 38, (Z)-2-Propenoic Acid, 3-(2,5-dimethyl-1-phenyl-1H-pyrrol-3-yl)-2-mercapto] | 13.6 µM | –
CC(C)(C)c1ccc(/C=C(\S)C(=O)O)cc1 [Example 40, (Z)-2-propenoic Acid, 3-[4-(1,1-dimethylethyl)phenyl]-2-mercapto] | 7.8 µM | –
O=C(O)/C(S)=C/c1c(-c2ccc(Cl)cc2)[nH]c2ccccc12 [Example 42, (Z)-2-propenoic acid, 3-[2-(4-chlorophenyl)-1H-indol-3-yl]-2-mercapto] | 6 µM | –
O=C(O)/C(S)=C/c1ccc2c(c1)CCCC2 [Example 44, (Z)-2-propenoic acid, 2-mercapto-3-(5,6,7,8-tetrahydro-2-naphthalenyl)] | 1.7 µM | –
O=C(O)/C(S)=C/c1ccc(CCc2ccccc2)cc1 [Example 47, (Z)-2-Propenoic Acid, 2-mercapto-3-[4-(2-phenylethyl)-phenyl]] | 2.7 µM | –
O=C(O)/C(S)=C/c1ccsc1 [Example 49, (Z)-2-Propenoic Acid, 3-(3-thienyl)-2-mercapto] | 7.5 µM | –
O=C(O)/C(S)=C/c1ccccc1 [Example 51, 2-Propenoic Acid, 2-mercapto-3-phenyl] | 5.9 µM | IC50 (calpain I; [4]): 5.9 µM; IC50 (papain): > 200 µM; IC50 (trypsin): > 200 µM; IC50 (thermolysin): 367 µM
O=C(O)/C(S)=C/c1ccc2c(c1)Cc1ccccc1-2 [Example 53, 2-Propenoic Acid, 3-(9H-fluoren-2-yl)-2-mercapto] | 1.6 µM | –
C[C@]12N[C@H](Cc3ccccc31)c1ccccc12 [MK-801, reference compound] | – | block of NMDA-induced LDH release (in words) [1]: blockable; spectrin breakdown product (SBP) formation, 150 kDa and 145 kDa (in words) [2]: inhibited the SBP formation
CN[C@H](CC(=O)O)C(=O)O [NMDA, N-methyl-D-aspartate, reference compound] | – | LDH release from the cells ([1]; 500 μM NMDA 30 minutes, additional 4 hours): about 210 unit/mL
